Consider four compounds from patent US20260325515A1, “TREATMENT OF CANINE CANCERS” (OneHealthCompany, Inc., priority 2023, published 2026).

Assay type in all cases: in vivo, canine (dogs)
Experiment [1] deals with oral malignant melanoma carrying BRCA1/2 mutations. Nature of the experiment: Survival of dogs with oral malignant melanoma carrying BRCA1/2 mutations treated with Olaparib. The settings on record: oral malignant melanoma with BRCA1/2 mutations, vs 235 days for other biomarker profiles and alternative drugs, P=0.0120.
The subject of experiment [2] is soft tissue sarcomas with TP53 mutations. Nature of the experiment: Real-world clinico-genomic analysis, soft tissue sarcomas with TP53 mutations. The protocol:
(§1) Briefly, real-world clinico-genomic data from 3000 dogs were analyzed.

Another experiment relates to BRCA1-mutated cases. In words: Real-world clinico-genomic analysis, BRCA1-mutated cases. The settings on record: Olaparib, P=0.004. Here is the method: as §1
The subject of a further experiment is Anal Sac carcinoma. Nature of the experiment: Survival of dogs with anal sac carcinoma with Olaparib. The conditions noted are these: 85 without Olaparib. An excerpt:
A significant survival benefit in dogs with anal sac carcinoma treated with Olaparib was observed. Dogs receiving Olaparib achieved a median survival of 422 days compared to 273 days in untreated cases, with a hazard ratio of 0.319 and a statistically significant p-value of 0.023 (Table 2).

Experiment [3] relates to TP53-mutated canine tumors. In words: Real-world clinico-genomic analysis, TP53-mutated canine tumors. Here is the method: as §1
In another experiment the test system is Osteosarcoma. Nature of the experiment: Survival of dogs with osteosarcoma treated with Olaparib (Cox proportional-hazards model). An excerpt:
(§2) A Cox proportional-hazards model was used to fit survival time. The model estimates the risk of death at a given time, h(t|X)=h(t)*exp(X1β1+ . . . +Xpβp), where h represents the risk of death at time t, and X represents p covariates. Additionally, the ratio of the hazard rates in the treatment group versus the control group is represented as the hazard ratio.
(§3) A one-hot encoded feature for each targeted therapy (treatment) received by the dog was created. For example, if a dog receives multiple treatments, the encoding for each treatment would be a “1,” otherwise, a treatment is encoded as “0”. Similarly, gene mutations were one-hot encoded and treated as independent variables during the analyses. Tumor types were grouped into broad categories to preserve sample size and include them as one-hot encoded features.
(§4) Each dog's survival time and status were determined based on their last known update, which was reported by the veterinarian's office. A dog is only considered deceased if there is a reported date of death, and is only considered to have survived up until the last known update. Two survival intervals were computed: survival from time of diagnosis and survival from time of treatment. When reporting hazard ratios regardless of intervention, survival time is defined as survival from time of diagnosis, which is the time from diagnosis to last known update if the dog is still active, and the time from diagnosis to death if the dog is deceased. When reporting hazard ratios for specific treatments, survival time is defined as survival from treatment. The first date of any targeted therapy being ordered is used as the start of the treatment date.
(§5) Demographic features, including weight in kilograms, sex, and reproductive status (neutered or spayed vs intact), were extracted and used as covariates in the Cox model. In addition, to control for each dog's baseline survival rates, the dog's age at diagnosis, as well as the time from diagnosis to treatment are included, which is computed by […].

Experiment [4] relates to TP53 mutant osteosarcomas. Nature of the experiment: Real-world clinico-genomic analysis, TP53 mutant osteosarcomas. The conditions noted are these: Olaparib, P<0.001. The protocol:
as §1

A further experiment relates to Squamous cell carcinoma. Nature of the experiment: Survival of dogs with squamous cell carcinoma treated with Toceranib (Cox proportional-hazards model).
Source text: as §2, §3, §4, §5

Another experiment relates to carcinoma. Nature of the experiment: Survival of dogs with carcinoma with Toceranib. The settings on record: 65 without Toceranib. An excerpt:
Dogs receiving Toceranib achieved a median survival of 419 days compared to 250 days in untreated cases, with a hazard ratio of 0.292 and a statistically significant p-value of 0.003 (Table 3).

The subject of experiment [5] is RB1-mutated canine tumors. In words: Real-world clinico-genomic analysis, RB1-mutated canine tumors. The settings on record: Rapamycin, P=0.024. Here is the method:
as §1

Another experiment deals with Melanoma. Nature of the experiment: Survival of dogs with melanoma treated with Palbociclib (Cox proportional-hazards model).
Source text: as §2, §3, §4, §5

On to `O=C(c1cc(Cc2n[nH]c(=O)c3ccccc23)ccc1F)N1CCN(C(=O)C2CC2)CC1` [Olaparib], for which the median survival in [1] is 448 days; with Osteosarcoma (vs. 154 days without treatment), “no death observed”. The “OS HR” value in [2] (Olaparib, P=0.011) is 0.07; with BRCA1-mutated cases, 0.39; in experiment [3] (TP53-mutated cases, Olaparib, P<0.001), 0.34; in experiment [4], 0.11. In the experiment with Anal Sac carcinoma (13 dogs with, without Olaparib 372 days (Table 2) / 273 days), the “Median Survival With Olaparib” value is 422 days. The “Hazard Ratio” value in the experiment on Anal Sac carcinoma (95% CI (0.119-0.855), p-value 0.023, 13 dogs with) is reported as 0.319. The “Median survival (#patients) with treatment” value (shortened to “Median survival (#patients)”) in the experiment with Osteosarcoma (dogs, 16 patients with treatment, 154 d (158) without treatment) is reported as “Inf (16)”. For the same compound, in the experiment on Osteosarcoma (dogs, treatment vs control, P = 0.021), the “Hazard Ratio (Signal Efficacy)” value stood at 0.181.
As to `Cc1[nH]c(/C=C2\C(=O)Nc3ccc(F)cc32)c(C)c1C(=O)NCCN1CCCC1` [Toceranib], in the experiment with Squamous cell carcinoma (dogs, 13 patients with treatment, 183 d (32) without treatment), the “Median survival (#patients)” value is given as 577 d (13). The “Hazard Ratio (Signal Efficacy)” value in the experiment with Squamous cell carcinoma (dogs, treatment vs control, P = 0.005) is 0.072. In addition, in the experiment on Squamous cell carcinoma (vs. 183 days without treatment), the “median survival” value worked out at 577 days. Further, the “Median Survival With Toceranib” value in the experiment on carcinoma (26 dogs with, without Toceranib 250 days) stood at 419 days. For the same compound, the “Hazard Ratio” value with carcinoma (95% CI printed (1.31-0.65), p-value 0.003, 26 dogs with) is recorded as 0.292.
On to `CO[C@H]1C[C@@H]2CC[C@@H](C)[C@@](O)(O2)C(=O)C(=O)N2CCCC[C@H]2C(=O)O[C@H]([C@H](C)C[C@@H]2CC[C@@H](O)[C@H](OC)C2)CC(=O)[C@H](C)/C=C(\C)[C@@H](O)[C@@H](OC)C(=O)[C@H](C)C[C@H](C)/C=C/C=C/C=C/1C` [Rapamycin], for which the “OS HR” value in [2] (Rapamycin, P=0.012) is 0.11; in experiment [5] it was 0.32; in [3] (TP53-mutated canine tumors, Rapamycin, P=0.028) it was 0.73.
Turning to `CC(=O)c1c(C)c2cnc(Nc3ccc(N4CCNCC4)cn3)nc2n(C2CCCC2)c1=O` [Palbociclib], the “Median survival (#patients)” value with Melanoma (dogs, 13 patients with treatment, 159 d (114) without treatment) is listed as 433 d (13). Further, the “Hazard Ratio (Signal Efficacy)” value with Melanoma (dogs, treatment vs control, P = 0.043) is recorded as 0.273. The “median survival” value in the experiment on Melanoma (vs. 159 days without treatment) is recorded as 433 days.
